Results from patent publication US10233184B2, “7-substituted sulfonimidoylpurinone compounds and derivatives for the treatment and prophylaxis of virus infection” (Hoffmann-La Roche Inc., priority 2016, dated 2019).
Like-named read-outs stand apart in the source and are kept apart here.

Tests used:
[1] = biological target: T1, human TLR7 (Homo sapiens, UniProt Q9NYK1); assay: HEK293-Blue-hTLR-7 cells assay (SEAP reporter); format: cell-based; settings: for EC50: HEK293-Blue-hTLR-7 cells, SEAP reporter, 20 hrs; for Ratio (EC50(prodrug)/EC50(active form)): EC50 of prodrug over EC50 of corresponding active form
T1 sequence (Q9NYK1 27-1049): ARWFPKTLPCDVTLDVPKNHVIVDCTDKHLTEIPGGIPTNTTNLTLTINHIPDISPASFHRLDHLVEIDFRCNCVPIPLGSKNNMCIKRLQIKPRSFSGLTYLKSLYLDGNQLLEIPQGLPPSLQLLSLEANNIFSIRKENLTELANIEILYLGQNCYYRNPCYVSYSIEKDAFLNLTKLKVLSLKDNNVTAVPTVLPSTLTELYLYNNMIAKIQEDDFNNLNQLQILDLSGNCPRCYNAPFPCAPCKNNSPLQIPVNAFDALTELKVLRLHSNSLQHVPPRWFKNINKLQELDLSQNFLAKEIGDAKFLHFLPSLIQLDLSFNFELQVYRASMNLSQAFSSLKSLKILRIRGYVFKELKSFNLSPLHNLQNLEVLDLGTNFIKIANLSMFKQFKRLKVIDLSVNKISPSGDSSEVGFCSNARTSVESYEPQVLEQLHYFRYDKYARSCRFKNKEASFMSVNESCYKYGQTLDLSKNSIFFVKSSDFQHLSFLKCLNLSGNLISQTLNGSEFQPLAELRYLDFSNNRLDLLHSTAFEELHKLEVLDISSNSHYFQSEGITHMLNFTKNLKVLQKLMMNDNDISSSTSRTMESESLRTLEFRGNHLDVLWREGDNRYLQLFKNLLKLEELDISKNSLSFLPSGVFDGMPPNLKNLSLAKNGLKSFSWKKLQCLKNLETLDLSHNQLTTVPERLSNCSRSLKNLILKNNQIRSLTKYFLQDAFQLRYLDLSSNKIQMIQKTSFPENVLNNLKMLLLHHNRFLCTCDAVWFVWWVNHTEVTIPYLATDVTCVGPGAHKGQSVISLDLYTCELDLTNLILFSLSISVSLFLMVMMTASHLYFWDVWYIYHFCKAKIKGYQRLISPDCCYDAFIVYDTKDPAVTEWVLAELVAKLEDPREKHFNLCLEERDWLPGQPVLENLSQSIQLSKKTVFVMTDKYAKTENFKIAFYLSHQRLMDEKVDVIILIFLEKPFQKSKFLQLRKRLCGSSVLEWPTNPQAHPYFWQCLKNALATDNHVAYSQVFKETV
Source text: HEK293-Blue-hTLR-7 Cells Assay:
A stable HEK293-Blue-hTLR-7 cell line was purchased from InvivoGen (Cat.#: hkb-htlr7, San Diego, Calif., USA). These cells were designed for studying the stimulation of human TLR7 by monitoring the activation of NF-κB. A SEAP (secreted embryonic alkaline phosphatase) reporter gene was placed under the control of the IFN-β minimal promoter fused to five NF-κB and AP-1-binding sites. The SEAP was induced by activating NF-κB and AP-1 via stimulating HEK-Blue hTLR7 cells with TLR7 ligands. Therefore the reporter expression was regulated by the NF-κB promoter upon stimulation of human TLR7 for 20 hrs. The cell culture supernatant SEAP reporter activity was determined using QUANTI-Blue™ kit (Cat.#: rep-qbl, Invivogen, San Diego, Calif., USA) at a wavelength of 640 nm, a detection medium that turns purple or blue in the presence of alkaline phosphatase.
HEK293-Blue-hTLR7 cells were incubated at a density of 250,000˜450,000 cells/mL in a volume of 180 μL in a 96-well plate in Dulbecco's Modified Eagle's medium (DMEM) containing 4.5 g/L glucose, 50 U/mL penicillin, […], […], 2 mM L-glutamine, 10% (V/V) heat-inactivated fetal bovine serum for 24 hrs. Then the HEK293-Blue-hTLR-7 cells were incubated with addition of 20 μL test compound in a serial dilution in the presence of final DMSO at 1% and perform incubation under 37° C. in a CO2 incubator for 20 hrs. Then 20 μL of the supernatant from each well was incubated with 180 μL Quanti-blue substrate solution at 37° C. for 2 hrs and the absorbance was read at 620˜655 nm using a spectrophotometer. The signalling pathway that TLR7 activation leads to downstream NF-κB activation has been widely accepted, and therefore similar reporter assay was also widely used for evaluating TLR7 agonist (Tsuneyasu Kaisho and Takashi Tanaka, Trends in Immunology, Volume 29, Issue 7, July 2008, […]; Hiroaki Hemmi et al, Nature Immunology 3, 196-200 (2002)).
The Compounds and Examples of the present invention were tested in HEK293-hTLR-7 assay for their TLR7 agonism activity as described herein and results are listed in Table 1. […] The calculated ratio of EC50(prodrug)/EC50(active form) were within the range from 32 to about 7600.

[2] = Single dose PK study in male Wister-Han rats; format: in vivo; settings: male, Wister-Han, rat, plasma, po, 5 mg/kg, 5 mg/kg oral dosing of active form
Method: The single dose PK in Male Wister-Han Rats was performed to assess pharmacokinetic properties of tested compounds. Two groups of animals were dosed via Gavage (POE) of the respective compound. […] Blood samples were placed into tubes containing EDTA-K2 anticoagulant and centrifuged at 5000 rpm for 6 min at 4° C. to separate plasma from the samples. After centrifugation, the resulting plasma was transferred to clean tubes for bioanalysis of both prodrug and active form on LC/MS/MS. In the groups that prodrug were dosed, the concentration of prodrugs in the plasma samples was under the detection limit. The “tested compound” in Table 8 was used as the internal standard for testing the metabolite (active form) of “dose compound” in vivo. The pharmacokinetic parameters were calculated using non-compartmental module of WinNonlin® Professional 6.2. The peak concentration (Cmax) was recorded directly from experimental observations. The area under the plasma concentration-time curve (AUC0-t) was calculated using the linear trapezoidal rule up to the last detectable concentration. Cmax and AUC0-last are two critical PK parameters related to the in vivo efficacy of the tested compound. Compounds with higher Cmax and AUC0-last will lead to the better in vivo efficacy.

[3] = active form, read-out: HEK293-hTLR-7 EC50 (Active form)
[4] = prodrug, read-out: HEK293-hTLR-7 EC50 (Prodrug)

Compound	Ratio (EC50(prodrug)/EC50(active form)) [1]	EC50 [1, 4] [µM]	EC50 [1, 3] [µM]	also measured
CCCS(=N)(=O)c1nc(N)c2[nH]c(=O)n(Cc3ccccc3)c2n1 (single isomer, unassigned) [Compound 1e-B]	–	–	0.086	–
CCC[S@](=N)(=O)c1nc(N)c2[nH]c(=O)n(Cc3ccc(Cl)cc3)c2n1 (single isomer, unassigned) [Compound 34e-A]	–	–	0.014	–
CCC[S@](=N)(=O)c1nc(N)c2[nH]c(=O)n(Cc3ccc(Cl)cc3)c2n1 (single isomer, unassigned) [Compound 34e-B]	–	–	0.011	–
CCCS(=N)(=O)c1nc(N)c2[nH]c(=O)n(Cc3ccc(C)cc3)c2n1 (single isomer, unassigned) [Compound 36g-A]	–	–	0.019	–
CCCS(=N)(=O)c1nc(N)c2[nH]c(=O)n(Cc3ccc(C)cc3)c2n1 (single isomer, unassigned) [Compound 36g-B]	–	–	0.022	–
CCC[S@](=N)(=O)c1nc(N)c2c(n1)n(Cc1ccc(C)cc1)c(=O)n2C(=O)N1CCCC1 (stereo in doubt) [Example 37-B, 6-amino-2-[S(R)-propylsulfonimidoyl]-9-(p-tolylmethyl)-7-(pyrrolidine-1-carbonyl)purin-8-one]	2154.5	47.4	–	–
CCCS(=N)(=O)c1nc(N)c2[nH]c(=O)n(Cc3ccccc3)c2n1 (stereo not shown) [Compound 1e, 6-amino-9-benzyl-2-(propylsulfonimidoyl)-7H-purin-8-one]	–	–	0.065	–
CCS(=N)(=O)c1nc(N)c2[nH]c(=O)n(Cc3ccc(Cl)cc3)c2n1 (stereo not shown) [Compound 41c, 6-amino-9-[(4-chlorophenyl)methyl]-2-(ethylsulfonimidoyl)-7H-purin-8-one]	–	–	0.053	–
CCCCN(C)C(=O)n1c(=O)n(Cc2ccc(Cl)cc2)c2nc([S@@](=N)(=O)CCC)nc(N)c21 [Example 34-A, 6-Amino-N-butyl-9-[(4-chlorophenyl)methyl]-N-methyl-8-oxo-2-[S(S)-propylsulfonimidoyl]purine-7-carboxamide]	428.6	6	–	–
CCC[S@](=N)(=O)c1nc(N)c2c(n1)n(Cc1ccc(C)cc1)c(=O)n2C(=O)N1CCCC1 [Example 37-A, 6-Amino-2-[S(S)-propylsulfonimidoyl]-9-(p-tolylmethyl)-7-(pyrrolidine-1-carbonyl)purin-8-one]	1400	26.6	–	–
CCCN(C)C(=O)n1c(=O)n(Cc2ccc(Cl)cc2)c2nc(S(=N)(=O)CC)nc(N)c21 (stereo not shown) [Example 41]	679.2	36	–	–
CCS(=O)(=O)c1nc(N)c2[nH]c(=O)n(Cc3ccc(Cl)cc3)c2n1 [Example S-2, reference compound]	–	–	–	AUC(0-t) [2]: 0.748 µM·h; Cmax [2]: 52.7 nM; concentration at 0.25 h ([2]; 0.25 h): 9.49 nM; concentration at 0.5 h ([2]; 0.5 h): 16.7 nM; concentration at 1 h ([2]; 1 h): 19.3 nM; concentration at 2 h ([2]; 2 h): 24.9 nM; concentration at 4 h ([2]; 4 h): 47.5 nM; concentration at 8 h ([2]; 8 h): 52.7 nM; concentration at 24 h ([2]; 24 h): 4.9 nM

Now from value to compound, other results behind:

Ratio (EC50(prodrug)/EC50(active form)) [1]	EC50 [1, 4] [µM]	Compound	EC50 [1, 3] [µM]	also measured
886.4	19.5	CCC[S@](=N)(=O)c1nc(N)c2c(n1)n(Cc1ccc(C)cc1)c(=O)n2C(=O)N(C)CCOC (stereo in doubt) [Example 38-B, 6-amino-N-(2-methoxyethyl)-N-methyl-8-oxo-2-[S(R)-propylsulfonimidoyl]-9-(p-tolylmethyl)purine-7-carboxamide]	–	–
879.1	96.7	CCN(C)C(=O)n1c(=O)n(Cc2ccc(C)cc2)c2nc([S@@](=N)(=O)CC)nc(N)c21 (stereo in doubt) [Example 44-B, 6-Amino-N-ethyl-2-[S(R)-ethylsulfonimidoyl]-N-methyl-8-oxo-9-(p-tolylmethyl)purine-7-carboxamide]	–	–
578.2	6.36	CCCCN(C)C(=O)n1c(=O)n(Cc2ccc(Cl)cc2)c2nc([S@@](=N)(=O)CCC)nc(N)c21 [Example 34-B, 6-amino-N-butyl-9-[(4-chlorophenyl)methyl]-N-methyl-8-oxo-2-[S(S)-propylsulfonimidoyl]purine-7-carboxamide]	–	–
–	26.2	CCC[S@](=N)(=O)c1nc(N)c2c(n1)n(Cc1ccc(C)cc1)c(=O)n2C(=O)N(C)CCOC [Example 38-A, 6-Amino-N-(2-methoxyethyl)-N-methyl-8-oxo-2-[S(S)-propylsulfonimidoyl]-(p-tolylmethyl)purine-7-carboxamide]	–	–
159.3	4.3	CCCS(=N)(=O)c1nc(N)c2c(n1)n(Cc1ccc(C)cc1)c(=O)n2C(=O)N(C)CC (stereo not shown) [Example 39, 6-Amino-N-ethyl-N-methyl-8-oxo-2-(propylsulfonimidoyl)-9-(p-tolylmethyl)purine-7-carboxamide]	–	–
1955.6	52.8	CCCCN(C)C(=O)n1c(=O)n(Cc2ccc(C)cc2)c2nc(S(=N)(=O)CCC)nc(N)c21 (stereo not shown) [Example 40, 6-Amino-N-butyl-N-methyl-8-oxo-2-(propylsulfonimidoyl)-9-(p-tolylmethyl)purine-7-carboxamide]	–	–
1868.6	65.4	CCN(C)C(=O)n1c(=O)n(Cc2ccc(C)cc2)c2nc([S@@](=N)(=O)CC)nc(N)c21 [Example 44-A, 6-Amino-N-ethyl-2[S(S)-ethylsulfonimidoyl]-N-methyl-8-oxo-9-(p-tolylmethyl)purine-7-carboxamide]	–	–
